The structures appear in SMILES notation.

As a reminder, the IC50 is the concentration needed to halve the response being measured. Higher therefore signals weaker potency.

This assay deals with Glycogen synthase kinase-3 beta (Homo sapiens, UniProt P49841). As to the kind of experiment: GSK-3beta Kinase Inhibition Assay. As to conditions: pH 7.5; 37 °C. The method, then:
Human GSK-3beta was expressed as the N-terminal FLAG-tagged protein using a baculovirus expression system. The kinase assay was conducted in a 96-well plate assay format. The kinase reactions were initiated by addition of ATP-solution (final 500 nM), and were incubated for 90 min at 37 deg C for GSK-3 beta. The reactions were terminated by the addition of Kinase-Glo reagent containing EDTA. […] The reaction window was calculated from the difference of the average signals obtained from the control (5% DMSO) and the background wells. […] The best-fit lines were obtained by analyzing the logistic fitting equation.

Sequence of Glycogen synthase kinase-3 beta (P49841 whole entry): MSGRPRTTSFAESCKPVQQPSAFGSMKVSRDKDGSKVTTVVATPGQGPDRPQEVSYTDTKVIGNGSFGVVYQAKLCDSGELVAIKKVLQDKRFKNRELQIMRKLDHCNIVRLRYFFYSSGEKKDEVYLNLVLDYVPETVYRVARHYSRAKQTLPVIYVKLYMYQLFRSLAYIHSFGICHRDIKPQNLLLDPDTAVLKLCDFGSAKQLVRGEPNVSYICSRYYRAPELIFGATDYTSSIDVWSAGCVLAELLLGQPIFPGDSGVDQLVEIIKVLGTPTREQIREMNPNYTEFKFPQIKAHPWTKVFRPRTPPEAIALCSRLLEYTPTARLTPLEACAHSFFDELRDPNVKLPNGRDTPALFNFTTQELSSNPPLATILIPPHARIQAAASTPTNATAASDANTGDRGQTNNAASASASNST

Molecule `COc1ccc(CSc2nnc(-c3ccc4nccn4c3)o2)cc1C(F)(F)F` [oxadiazole derivative, 20q] returned a concentration for half-maximal inhibition (IC50) of 6.5 nM.

Source of the values: BindingDB's records for doi:10.1016/j.bmc.2009.01.019 (Takeda Pharmaceutical, 2009).
